In data set [1] the target is T1, mushroom tyrosinase (Agaricus bisporus, UniProt C7FF04). Conditions: read-out: Tyrosinase inhibitory activity IC50.
The test system of another data set is fresh-cut apples. Kind of data set: Anti-browning experiment on fresh-cut apples. The arrangement: species or system Fuji apples. As to conditions: stored at 5 °C for 4 days.
Data set [2] concerns the target T1, mushroom tyrosinase. Kind of data set: Tyrosinase kinetic analysis. It is filed as biochemical.
Another data set addresses tyrosinase (Agaricus bisporus, UniProt C7FF04). Kind of data set: Fluorescence quenching of tyrosinase. It is filed as binding, mushroom. As to conditions: for Kq / Ksv: λex 280 nm.
The nature of data set [3]: DPPH free radical scavenging activity assay. Conditions: read-out: DPPH radical scavenging IC50.
A short description of data set [4]: ABTS radical cation scavenging activity assay. Conditions: read-out: ABTS radical scavenging IC50.
Data set [5] concerns human umbilical vein endothelial cells (HUVEC). Kind of data set: MTT assay for cell viability. Format: cell-based. As to conditions: 24-h treatment, up to 32 µM. Background: Tetrazolium dyes change colour on reduction, which living cells bring about.
The target in data set [6] is T1, mushroom tyrosinase. Put plainly: biochemical.

Structures are written as SMILES. Entries after “also recorded” stand apart in the source; their conditions may differ. Where two headings read alike, the source gives them in different places.

Chain of tyrosinase (C7FF04 1-392 limits assumed): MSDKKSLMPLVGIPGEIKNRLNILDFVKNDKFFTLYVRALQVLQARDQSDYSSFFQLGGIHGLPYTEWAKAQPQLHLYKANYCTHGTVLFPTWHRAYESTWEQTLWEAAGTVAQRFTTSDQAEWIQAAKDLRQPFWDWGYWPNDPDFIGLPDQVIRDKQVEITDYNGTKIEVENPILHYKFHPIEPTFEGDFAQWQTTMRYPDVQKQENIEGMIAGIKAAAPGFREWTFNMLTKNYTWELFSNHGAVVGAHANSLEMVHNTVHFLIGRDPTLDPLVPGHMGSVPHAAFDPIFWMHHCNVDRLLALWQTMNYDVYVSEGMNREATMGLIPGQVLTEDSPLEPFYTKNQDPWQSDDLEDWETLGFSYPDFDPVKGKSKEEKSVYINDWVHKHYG
T1 sequence (C7FF04 1-392 limits assumed): as above

For the molecule `Cc1ccccc1CC(=O)Nc1nnc(SCc2cn(Cc3cc(=O)c(O)co3)nn2)s1` [Compound 6j, N-(5-(((1-((5-hydroxy-4-oxo-4H-pyran-2-yl)methyl)-1H-1,2,3-triazol-4-yl)met-hyl)thio)-1,3,4-thiadiazol-2-yl)-2-(o-tolyl)acetamide], the half-inhibitory concentration (IC50) (as a rule, the midpoint of a concentration-inhibition curve) at mushroom tyrosinase [1] was 17.26 ± 0.038 µM.

For `O=c1cc(CO)occ1O` [Kojic acid, kojic acid, reference compound], the “L* value of fresh-cut apples” value in the data set with fresh-cut apples (50 µM) was 63.04.

In the case of `CC(=O)c1ccc(Cl)cc1OCc1cn(Cc2cc(=O)c(O)co2)nn1` [Compound 13q, 2-((4-((2-acetyl-5–CHlorophenoxy)methyl)-1H-1,2,3-triazol-1-yl)methyl)-5-hy-droxy-4H-pyran-4-one], at mushroom tyrosinase [1], the IC50 stood at 3.03 ± 0.059 µM.

For `CC(=O)c1ccc(Br)cc1OCc1cn(Cc2cc(=O)c(O)co2)nn1` [Compound 13r, 2-((4-((2-acetyl-5-bromophenoxy)methyl)-1H-1,2,3-triazol-1-yl)methyl)-5-hy-droxy-4H-pyran-4-one], the concentration for half-maximal inhibition (IC50) on mushroom tyrosinase [1] was 3.33 ± 0.057 µM.

With `COc1ccc(C(C)=O)c(OCc2cn(Cc3cc(=O)c(O)co3)nn2)c1` [Compound 13t, 2-((4-((2-acetyl-5-methoxyphenoxy)methyl)-1H-1,2,3-triazol-1-yl)methyl)-5-hydroxy-4H-pyran-4-one], the Ki (in general, a measure of affinity in units of concentration, obtained from inhibition or displacement) on mushroom tyrosinase [2] turned out to be 0.365 µM. The inhibition type entry on mushroom tyrosinase [2] (Lineweaver–Burk double reciprocal plots) is “mixed-type inhibitor”. For the same molecule, at tyrosinase (Stern-Volmer plots at 298, 303 and 310 K), the predominant quenching mechanism entry is given as “dynamic quenching”. In addition, the Kq at tyrosinase (T 298 K) was found to be 1.952e+12 M⁻¹ s⁻¹; on tyrosinase (T 303 K), 2.478e+12 M⁻¹ s⁻¹; at tyrosinase (T 310 K), 2.823e+12 M⁻¹ s⁻¹. For the same molecule, the Ksv at tyrosinase (T 298 K) is listed as 0.01952 L/µmol; on tyrosinase (T 303 K) it was 0.02478 L/µmol; at tyrosinase (T 310 K), 0.02823 L/µmol. Moreover, the entries for the “L* value of fresh-cut apples” value in the data set with fresh-cut apples (25 µM), in the data set on fresh-cut apples (50 µM) and in the data set on fresh-cut apples (100 µM) were 65.91, 66.59 and 67.87, respectively. The concentration for half-maximal inhibition (IC50) in data set [3] was 57.9 ± 0.28 µM; in data set [4], 45.64 ± 0.25 µM; at mushroom tyrosinase [6], 1.363 ± 0.003 µM. For the same molecule, in data set [5], the “toxicity to HUVEC (cell viability)” value is given as “no discernible toxicity; also recorded: no evident toxicity”.

For the molecule `COc1ccc(CC(=O)Nc2nnc(SCc3cn(Cc4cc(=O)c(O)co4)nn3)s2)cc1` [Compound 6p, N-(5-(((1-((5-hydroxy-4-oxo-4H-pyran-2-yl)methyl)-1H-1,2,3-triazol-4-yl)met-hyl)thio)-1,3,4-thiadiazol-2-yl)-2-(4-methoxyphenyl)acetamide], the half-inhibitory concentration (IC50) on mushroom tyrosinase [1] was determined as 3.832 ± 0.005 µM.

`CC(=O)c1ccc(OCc2cn(Cc3cc(=O)c(O)co3)nn2)c(C)c1` [Compound 13e, 2-((4-((4-acetyl-2-methylphenoxy)methyl)-1H-1,2,3-triazol-1-yl)methyl)-5-hydr-oxy-4H-pyran-4-one]: the IC50 at mushroom tyrosinase [1] is 1.74 ± 0.048 µM.

For the molecule `Cc1cccc(CC(=O)Nc2nnc(SCc3cn(Cc4cc(=O)c(O)co4)nn3)s2)c1` [Compound 6k, N-(5-(((1-((5-hydroxy-4-oxo-4H-pyran-2-yl)methyl)-1H-1,2,3-triazol-4-yl)met-hyl)thio)-1,3,4-thiadiazol-2-yl)-2-(m-tolyl)acetamide], the 50% inhibitory concentration (IC50) at mushroom tyrosinase [1] worked out at 13.81 ± 0.066 µM.

Turning to `O=C1O[C@H]([C@@H](O)CO)C(O)=C1O` [Vc, ascorbic acid, reference compound], in the data set with fresh-cut apples (50 µM), the “L* value of fresh-cut apples” value was 63.58.

Take `CC(=O)c1ccc(C)cc1OCc1cn(Cc2cc(=O)c(O)co2)nn1` [Compound 13n, 2-((4-((2-acetyl-5-methylphenoxy)methyl)-1H-1,2,3-triazol-1-yl)methyl)-5-hy-droxy-4H-pyran-4-one]: the IC50 at mushroom tyrosinase [1] came to 6.818 ± 0.027 µM.

With `Cc1ccc(CC(=O)Nc2nnc(SCc3cn(Cc4cc(=O)c(O)co4)nn3)s2)cc1` [Compound 6l, N-(5-(((1-((5-hydroxy-4-oxo-4H-pyran-2-yl)methyl)-1H-1,2,3-triazol-4-yl)met-hyl)thio)-1,3,4-thiadiazol-2-yl)-2-(p-tolyl)acetamide], the IC50 on mushroom tyrosinase [1] was determined as 3.289 ± 0.011 µM.

For the origin of these results see PMC12041489 (Scientific Reports, 2025).
